In patent publication EP0961591B1, “METHOD TO ENHANCE TISSUE AC[…] RADIOLABELED COMPOUNDS” (BOARD OF SUPERVISORS OF LOUISIANA STATE UNIVERSITY AND …, priority 1997, dated 1999):
“And” between values parts separate entries of the source, which are not always exact repeats. Equal entries are not always repeated.

What was measured:
DNA of IMR-32 cells = experiment: Binding to nuclear DNA (DNA extraction, gamma counting); assay type: cell-based, human; conditions: for Radioligand (CPM ± SD), Non-Decay Corrected: 100 µg DNA, IMR-32 (SST-2 positive); for % Specifically Bound / CPM Specifically Bound (Difference), Non-Decay Corrected / Radioligand (CPM ± SD), Decay Corrected Values / SPM Specifically Bound (Difference), Decay Corrected Values / Radioligand + Unlabeled Ligand (CPM ± SD), Decay Corrected Values / Radioligand + Unlabeled Ligand (CPM ± SD), Non-Decay Corrected: IMR-32 DNA; for Radioligand + Unlabeled Ligand (CPM ± SD), Decay Corrected Values / Radioligand + Unlabeled Ligand (CPM ± SD), Non-Decay Corrected: + octreotide acetate
Method: (§1) Cells were removed from the culture surface using a sterile rubber policeman. The suspended cells were washed three times in cold Dulbecco's phosphate buffered saline and processed through a DNA extraction procedure according to the vendor's directions (GenomicPrep® cells and Tissue DNA Isolation Kit, Pharmacia Biotech, Piscataway, NJ). The cells were incubated in the Cell Lysis Solution of the DNA isolation kit at 37°C for 10 minutes. Next, 3 µl of the Rnase Solution was added to the cell lysate, followed by thorough mixing and incubation at 37°C for 1 hour. The samples were cooled to room temperature, and 200 µl of the Protein Precipitation Solution were added. Following vortexing, the contents of each tube were centrifuged at 14,000 x g for 1 min, and the DNA pellet was washed with 70% ethanol. Following drying the DNA was hydrated in a DNA Hydration Solution, and the concentration of DNA determined by spectrometry at 260 nm. One hundred microgram (100 µg) quantities of each treatment were transferred to radioactive counting vials, and the amount of radioactivity associated with each was measured in a Beckman 5500 gamma counter. The data, as presented in Table 6, were obtained as counts per minute (cpm). The differences between radioactivity measured in cells incubated solely with radioligand and in cells incubated with both radioligand and unlabeled ligand were statistically analyzed using ANOVA.
(§2) Additionally, the DNA from each flask was divided in half, and 1 mg of DNA from each flask was treated with proteinase-K (Lite Technologies, Gaithersburg, MD) for 1 hour at 37°C. The enzyme-treated DNA was then reprecipitated with ethanol and sodium acetate, washed with cold ethanol, and redissolved in DNA hydration solution. The concentration was determined by spectrophotometry at 260 nm. One hundred microgram (100 µg) of protease-treated DNA and an equal quantity of untreated DNA were transferred to radioactive counting vials and the amount of radioactivity measured in a Beckman 5500 gamma counter, as described above. The data, as presented in Table 7 and Figure 13, were obtained as counts per minute (cpm).

DNA of SKNSH cells = experiment: as above; assay type: cell-based, human; conditions: for Radioligand (CPM ± SD), Non-Decay Corrected: 100 µg DNA, SKNSH (SST-2 negative); for % Specifically Bound / CPM Specifically Bound (Difference), Non-Decay Corrected / Radioligand + Unlabeled Ligand (CPM ± SD), Non-Decay Corrected: SKNSH DNA; for Radioligand + Unlabeled Ligand (CPM ± SD), Non-Decay Corrected: + octreotide acetate
Method: as §1, §2

[1] = test system: human angiogenic vascular tissue; experiment: Human Placental Vein Angiogenesis Model; assay type: cell-based; conditions: 50 µCi/mL (or equivalent amounts), 14 days
Text: Watson et al., "Up-Regulation of Somatostatin Receptor Subtype 2 (SST-2) mRNA Occurs During the Transformation of Human Endothelium to the Angiogenic Phenotype," Paper Presented at the 12th International Symposium on Regulatory Peptides, Copenhagen, Denmark, September 1996; J.C. Watson et al., "SST-2 Gene Expression Appears During Human Angiogenesis," Regulatory Peptides, vol. 64, p. 206 (Abstract) (1996); and J.C. Watson et al., "Breast Cancer Increases Initiation of Angiogenesis Without Accelerating Neovessel Growth Rate," Surgery, vol. 122, pp. 508-14 (1997). Human placental veins were cut into discs of 2 mm diameter and were incorporated into a 0.3% fibrinogen gel. This gel was then overlaid with tissue culture media containing 10-20 % fetal calf serum (FCS). Under normal conditions, endothelial cords will begin to sprout from the transected cut edge of the vein discs within six days.
These vein discs were placed into wells of three separate culture plates. One culture plate, the control sample, was allowed to grow without treatment. […] The discs were then incubated for fourteen days. […]
Using a digital image analyzer, the mean area of the sprouting tissue surrounding the discs was measured.
To measure the growth rate of angiogenic vascular tissue, every two days during the 14-day incubation period, the length of sprouts were measured. […]

[2] = 100µg DNA, mean of three experiments
[3] = 100µg DNA, proteinase-K, mean of three experiments
[4] = 100µg DNA, single replicate experiments

In the case of “(^111In-DTPA-D-Phe^1)-octreotide [^111In-pentetreotide]”, the “Radioligand (CPM ± SD), Non-Decay Corrected” value (DNA of IMR-32 cells; 30 mins) is reported as 128 ± 28 CPM, the “Radioligand (CPM ± SD), Non-Decay Corrected” value (DNA of IMR-32 cells; 60 mins) is reported as 152 ± 165 CPM and the “Radioligand (CPM ± SD), Non-Decay Corrected” value (DNA of IMR-32 cells; 180 mins) is reported as 291 ± 44 CPM. The “Radioligand (CPM ± SD), Non-Decay Corrected” value (DNA of IMR-32 cells; 1440 mins) was 264 ± 104 CPM, the “Radioligand (CPM ± SD), Non-Decay Corrected” value (DNA of IMR-32 cells; 2880 mins) was 624 ± 59 CPM and the “Binding to Cellular DNA, IMR-32 CELLS Untreated (CPM), Mean + S.D.” value (DNA of IMR-32 cells; [2]) was 12,066 ± 2273 CPM. For the same substance, the “Binding to Cellular DNA, IMR-32 CELLS Protease Treated (CPM)” value (DNA of IMR-32 cells; 100µg DNA, proteinase-K 1 hour 37°C, single replicate experiments) was 10,276 CPM and 9.564 CPM and 12,648 CPM, the “Binding to Cellular DNA, IMR-32 CELLS Protease Treated (CPM), Mean + S.D.” value (DNA of IMR-32 cells; [3]) was 10,829 ± 1614 CPM and the “Binding to Cellular DNA, IMR-32 CELLS Untreated (CPM)” value (DNA of IMR-32 cells; [4]) was 11,512 CPM and 10,122 CPM and 14,566 CPM. The “total bound CPM removed by the protease treatment” value (DNA of IMR-32 cells; DNA of IMR-32 cells, proteinase-K) was 10-13%, the “% Specifically Bound” value (DNA of IMR-32 cells; 30 mins) was 35% and the “CPM Specifically Bound (Difference), Non-Decay Corrected” value (DNA of IMR-32 cells; 30 mins) was 45 CPM. For the same substance, the “Radioligand (CPM ± SD), Decay Corrected Values” (DNA of IMR-32 cells; 30 mins) was 128 ± 28 CPM, the “SPM Specifically Bound (Difference), Decay Corrected Values” (from here on “SPM Specifically Bound (Difference)”) (DNA of IMR-32 cells; 30 mins) was 45 CPM and the “% Specifically Bound” value (DNA of IMR-32 cells; 60 mins) was 45%. The “CPM Specifically Bound (Difference), Non-Decay Corrected” value (DNA of IMR-32 cells; 60 mins) was 69 CPM, the “Radioligand (CPM ± SD), Decay Corrected Values” (DNA of IMR-32 cells; 60 mins) was 157 ± 165 CPM and the “SPM Specifically Bound (Difference)” value (DNA of IMR-32 cells; 60 mins) was 69 CPM. For the same substance, the “% Specifically Bound” value (DNA of IMR-32 cells; 180 mins) was 43%, the “CPM Specifically Bound (Difference), Non-Decay Corrected” value (DNA of IMR-32 cells; 180 mins) was 126 CPM and the “Radioligand (CPM ± SD), Decay Corrected Values” (DNA of IMR-32 cells; 180 mins) was 291 ± 44 CPM. The “SPM Specifically Bound (Difference)” value (DNA of IMR-32 cells; 180 mins) was 126 CPM, the “% Specifically Bound” value (DNA of IMR-32 cells; 1440 mins) was 67% and the “CPM Specifically Bound (Difference), Non-Decay Corrected” value (DNA of IMR-32 cells; 1440 mins) was 177 CPM. For the same substance, the “Radioligand (CPM ± SD), Decay Corrected Values” (DNA of IMR-32 cells; 1440 mins) was 338 ± 133 CPM, the “SPM Specifically Bound (Difference)” value (DNA of IMR-32 cells; 1440 mins) was 226 CPM and the “% Specifically Bound” value (DNA of IMR-32 cells; 2880 mins) was 67%. The “CPM Specifically Bound (Difference), Non-Decay Corrected” value (DNA of IMR-32 cells; 2880 mins) was 421 CPM, the “Radioligand (CPM ± SD), Decay Corrected Values” (DNA of IMR-32 cells; 2880 mins) was 1023 ± 97 CPM and the “SPM Specifically Bound (Difference)” value (DNA of IMR-32 cells; 2880 mins) was 690 CPM. For the same substance, the “Radioligand + Unlabeled Ligand (CPM ± SD), Decay Corrected Values” (DNA of IMR-32 cells; 30 mins) was 83 ± 12 CPM, the “Radioligand + Unlabeled Ligand (CPM ± SD), Non-Decay Corrected” value (DNA of IMR-32 cells; 30 mins) was 83 ± 12 CPM and the “Radioligand + Unlabeled Ligand (CPM ± SD), Decay Corrected Values” (DNA of IMR-32 cells; 60 mins) was 83 ± 1 CPM. The “Radioligand + Unlabeled Ligand (CPM ± SD), Non-Decay Corrected” value (DNA of IMR-32 cells; 60 mins) was 83 ± 1 CPM, the “Radioligand + Unlabeled Ligand (CPM ± SD), Decay Corrected Values” (DNA of IMR-32 cells; 180 mins) was 165 ± 15 CPM and the “Radioligand + Unlabeled Ligand (CPM ± SD), Non-Decay Corrected” value (DNA of IMR-32 cells; 180 mins) was 165 ± 15 CPM. The “Radioligand + Unlabeled Ligand (CPM ± SD), Decay Corrected Values” (DNA of IMR-32 cells; 1440 mins) was 112 ± 8 CPM, the “Radioligand + Unlabeled Ligand (CPM ± SD), Non-Decay Corrected” value (DNA of IMR-32 cells; 1440 mins) was 87 ± 6 CPM and the “Radioligand + Unlabeled Ligand (CPM ± SD), Decay Corrected Values” (DNA of IMR-32 cells; 2880 mins) was 332 ± 33 CPM. For the same substance, the “Radioligand + Unlabeled Ligand (CPM ± SD), Non-Decay Corrected” value (DNA of IMR-32 cells; 2880 mins) was 203 ± 20 CPM, the “Radioligand (CPM ± SD), Non-Decay Corrected” value (DNA of SKNSH cells; 60 minutes) was 85 ± 8 CPM and the “Radioligand (CPM ± SD), Non-Decay Corrected” value (DNA of SKNSH cells; 4320 minutes) was 232 ± 10 CPM. The “Radioligand (CPM ± SD), Non-Decay Corrected” value (DNA of SKNSH cells; […]) was 87 ± 1 CPM, the “Binding to Cellular DNA, SKNSH CELLS Untreated (CPM), Mean + S.D.” value (DNA of SKNSH cells; [2]) was 285 ± 56 CPM and the “Binding to Cellular DNA, SKNSH CELLS Protease Treated (CPM), Mean + S.D.” value (DNA of SKNSH cells; [3]) was 247 ± 149 CPM. For the same substance, the “Binding to Cellular DNA, SKNSH CELLS Untreated (CPM)” value (DNA of SKNSH cells; [4]) was 316 CPM and 319 CPM, the “% Specifically Bound” value (DNA of SKNSH cells; 60 minutes) was 0% and the “CPM Specifically Bound (Difference), Non-Decay Corrected” value (DNA of SKNSH cells; 60 minutes) was -6 CPM. The “CPM Specifically Bound (Difference), Non-Decay Corrected” value (DNA of SKNSH cells; 4320 minutes) was “+58 CPM”, the “Radioligand + Unlabeled Ligand (CPM ± SD), Non-Decay Corrected” value (DNA of SKNSH cells; 60 minutes) was 91 ± 25 CPM and the “Radioligand + Unlabeled Ligand (CPM ± SD), Non-Decay Corrected” value (DNA of SKNSH cells; 4320 minutes) was 174 ± 41 CPM. The “% Specifically Bound” value (DNA of SKNSH cells; […]) was 8%, the “CPM Specifically Bound (Difference), Non-Decay Corrected” value (DNA of SKNSH cells; […]) was “+7 CPM” and the “% initiation of angiogenic growth” value [1] was “lowest % initiation”. The vessel area ([1]; digital image analyzer) was “the least area of new growth”.
